Patent US20150352108A1, “AMINO-PYRIMIDINE COMPOUNDS AS INHIBITORS OF TBK1 AND/OR IKK EPSILON” (Alzheimer's Institute of America, priority 2009, published 2015)
Where two headings read alike, the source gives them in different places.

Legend:
[1] = test system: IKKε-mediated phosphorylation of IRF3; assay: In-situ phosphorylation of IRF3 (pIRF3 Ser396 ELISA) in HEK293T cells cotransfected with IRF3 and IKKε; assay type: cell-based; conditions: Homo sapiens, HEK-293T; HEK293T cells, 20 hours, text bins; read-out: IC50 for inhibition of the in-situ IKKε-mediated phosphorylation of IRF3
Description: HEK293T cells were cotransfected in a 10-cm dish with IRF3 and IKKε expression plasmids using Lipofectamine 2000 (Invitrogen, Carlsbad, Calif.). The following day, cells were replated at 20,000 per well in 96-well plates and treated with test compounds (compounds according to Formula I) for 20 hours. Cell lysates were prepared and analyzed using an ELISA for phospho-Ser396 (anti-IRF3 capture antibody, Santa Cruz Biotechnology, Inc., Santa Cruz, Calif.; anti-p-Ser396 IRF3 detection antibody, Cell Signaling, Danvers, Mass.). pIRF3 levels in compound treated cells were normalized to DMSO treated cells (no compound). Cell viability was assayed in a parallel set of plates to monitor cytotoxic effects of the test compounds (CellTiter-Glo, Promega, Inc., Madison, Wis.). TBK1 activity was tested by Western blotting using a phospho-specific IRF7 antibody. Similar to above, HEK293T cells were transfected with IRF7 and TBK1 expression plasmids. Cells were seeded in 12-well plates at 150,000 per well and treated overnight with test compounds. Protein lysates were prepared and processed for Western blotting followed by detection using a phosphor-Ser477/Ser479 IRF7 antibody (BD Biosciences, San Jose, Calif.)

[2] = target: T1, IKKε (Homo sapiens, UniProt Q14164); assay: In-vitro IKKε kinase assay ([γ33]ATP filter-plate); assay type: biochemical
T1 construct: His-tag; made in house; host or cells: Sf9 insect cells
T1 sequence (Q14164 1-716): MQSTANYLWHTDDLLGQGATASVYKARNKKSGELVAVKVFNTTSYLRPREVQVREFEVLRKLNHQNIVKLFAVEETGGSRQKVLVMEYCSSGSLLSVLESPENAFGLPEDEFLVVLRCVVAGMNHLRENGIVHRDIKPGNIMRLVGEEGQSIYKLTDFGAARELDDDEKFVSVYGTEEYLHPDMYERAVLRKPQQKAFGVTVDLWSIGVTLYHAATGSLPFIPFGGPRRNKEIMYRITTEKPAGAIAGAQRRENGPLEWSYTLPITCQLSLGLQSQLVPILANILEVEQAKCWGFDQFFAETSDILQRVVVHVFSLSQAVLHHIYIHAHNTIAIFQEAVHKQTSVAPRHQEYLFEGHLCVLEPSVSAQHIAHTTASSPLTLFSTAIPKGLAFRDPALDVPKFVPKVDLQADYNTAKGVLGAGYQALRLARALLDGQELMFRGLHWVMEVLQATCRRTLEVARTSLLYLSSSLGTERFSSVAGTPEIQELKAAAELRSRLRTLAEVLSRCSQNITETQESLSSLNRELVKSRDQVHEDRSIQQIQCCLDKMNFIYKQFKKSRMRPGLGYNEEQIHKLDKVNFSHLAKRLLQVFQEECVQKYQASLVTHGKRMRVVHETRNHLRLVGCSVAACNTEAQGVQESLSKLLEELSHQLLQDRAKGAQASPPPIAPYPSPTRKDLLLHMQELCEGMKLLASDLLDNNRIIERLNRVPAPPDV
How it was run: (§1)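 His-tagged Sf9-expressed kinases at 0.1 or 0.02 μg/ml (TBK1) and 0.1 or 0.015 μg/ml (IKKε) for normal and sensitized formats, with myelin basic protein or casein substrate. ATP was at 2×Km (60 μM TBK1, 32 μM IKKε) plus 0.3 μCi [γ33]ATP. Reactions ran 30-45 min, were captured on P-81 filters, and counts were normalized to DMSO.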

[3] = target: T2, TBK1 (Homo sapiens, UniProt Q9UHD2); assay: In-vitro TBK1 kinase assay ([γ33]ATP filter-plate); assay type: biochemical
T2 construct: His-tag; made in house; host or cells: Sf9 insect cells
T2 sequence (Q9UHD2 1-729): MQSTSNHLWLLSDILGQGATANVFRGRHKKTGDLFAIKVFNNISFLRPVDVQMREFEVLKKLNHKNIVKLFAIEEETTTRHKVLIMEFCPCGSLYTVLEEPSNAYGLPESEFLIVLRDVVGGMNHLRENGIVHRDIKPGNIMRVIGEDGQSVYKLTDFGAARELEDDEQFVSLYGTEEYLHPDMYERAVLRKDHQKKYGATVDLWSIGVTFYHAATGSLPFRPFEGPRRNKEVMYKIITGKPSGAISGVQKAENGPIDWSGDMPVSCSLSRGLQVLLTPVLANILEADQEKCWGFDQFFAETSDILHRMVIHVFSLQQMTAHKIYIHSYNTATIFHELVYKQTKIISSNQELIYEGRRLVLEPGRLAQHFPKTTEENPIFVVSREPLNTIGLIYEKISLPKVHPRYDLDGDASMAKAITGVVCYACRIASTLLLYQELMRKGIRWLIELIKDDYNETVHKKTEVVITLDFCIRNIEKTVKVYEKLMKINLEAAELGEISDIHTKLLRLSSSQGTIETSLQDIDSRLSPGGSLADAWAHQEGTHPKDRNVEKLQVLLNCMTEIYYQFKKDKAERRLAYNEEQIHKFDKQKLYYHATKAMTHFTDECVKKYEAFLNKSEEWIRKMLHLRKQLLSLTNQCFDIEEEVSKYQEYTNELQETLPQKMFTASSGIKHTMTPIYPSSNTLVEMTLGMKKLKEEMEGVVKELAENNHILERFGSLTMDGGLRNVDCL
How it was run: as §1

[4] = text bins, read-out: IC50 for inhibition of the kinase activity of IKKε
[5] = text bins, read-out: IC50 for inhibition of the kinase activity of TBK1

Row | Compound | IC50 [1] [nM] | IC50 [2, 4] [nM] | IC50 ([3]; Table 3, read-out: TBK1 IC50) [nM] | IC50 [3, 5] [nM] | IC50 ([2]; Table 3, read-out: IKKε IC50) [nM]
1 | CCN(CC)CCOc1cc(Nc2nccc(-c3ccc(OCC4CC4)c(C#N)c3)n2)ccc1F [compound 535, 2-(Cyclopropylmethoxy)-5-[2-({3-[2-(diethylamino)ethoxy]-4-fluorophenyl}amino)pyrimidin-4-yl]benzonitrile] | 250 to 500 | < 5 | – | – | –
2 | COCCC(=O)Nc1cccc(Nc2nccc(-c3ccc(OC4CCOCC4)c(C#N)c3)n2)c1 [compound 538, N-[3-({4-[3-Cyano-4-(tetrahydro-2H-pyran-4-yloxy)phenyl]pyrimidin-2-yl}amino)phenyl]-3-methoxypropanamide] | < 100 | < 5 | – | – | –
3 | CN(C)CCNc1cccc(Nc2nccc(-c3ccc(OC4CCOCC4)c(C#N)c3)n2)c1 [compound 540, 5-{2-[(3-{[2-(Dimethylamino)ethyl]amino}phenyl)amino]pyrimidin-4-yl}-2-(tetrahydro-2H-pyran-4-yloxy)benzonitrile] | < 100 | < 5 | – | – | –
4 | N#Cc1cc(-c2ccnc(Nc3ccc(F)c(OC4CCNC4)c3)n2)ccc1OC1CCOCC1 (centres unmarked) [compound 541, 5-(2-{[4-Fluoro-3-(pyrrolidin-3-yloxy)phenyl]amino}pyrimidin-4-yl)-2-(tetrahydro-2H-pyran-4-yloxy)benzonitrile] | 100 to 250 | < 5 | – | – | –
5 | N#Cc1cc(-c2ccnc(Nc3cccc(CN4CCCC4)c3)n2)ccc1OC1CCOCC1 [compound 542, 5-(2-{[3-(Pyrrolidin-1-ylmethyl)phenyl]amino}pyrimidin-4-yl)-2-(tetrahydro-2H-pyran-4-yloxy)benzonitrile] | < 100 | < 5 | – | – | –
6 | COCCOC1CN(c2cc(Nc3nccc(-c4ccc(OC5CCOCC5)c(C#N)c4)n3)ccc2C)C1 [compound 596, 5-[2-({3-[3-(2-Methoxyethoxy)azetidin-1-yl]-4-methylphenyl}amino)pyrimidin-4-yl]-2-(tetrahydro-2H-pyran-4-yloxy)benzonitrile] | – | < 5 | 1 | < 10 | 0.7
7 | COc1cc(Nc2nc(-c3ccc(OC4CCOCC4)c(C#N)c3)c3nc[nH]c3n2)ccc1N1CCOCC1 [compound 633, 5-(2-{[3-Methoxy-4-(morpholin-4-yl)phenyl]amino}-3H-purin-6-yl)-2-(tetrahydro-2H-pyran-4-yloxy)benzonitrile] | – | 5 to 50 | – | < 10 | –
8 | COC1CN(C(=O)c2ccc(Nc3nccc(-c4ccc(NC(=O)C5CC5)c(C#N)c4)n3)cc2)C1 [compound 665, N-{2-Cyano-4-[2-({4-[(3-methoxyazetidin-1-yl)carbonyl]phenyl}amino)pyrimidin-4-yl]phenyl} cyclopropane-carboxamide] | – | < 5 | – | < 10 | –

Continued, values first:

Row | IC50 [1] [nM] | IC50 [2, 4] [nM] | IC50 ([3]; Table 3, read-out: TBK1 IC50) [nM] | IC50 [3, 5] [nM] | IC50 ([2]; Table 3, read-out: IKKε IC50) [nM] | Compound
9 | < 100 | < 5 | – | – | – | CC(C)COc1ccc(-c2ccnc(Nc3ccc(N4CCN(CCO)CC4)cc3)n2)cc1C#N [compound 442, 5-[2-({4-[4-(2-Hydroxyethyl)piperazin-1-yl]phenyl}amino)pyrimidin-4-yl]-2-(2-methylpropoxy) benzonitrile]
10 | < 100 | < 5 | – | – | – | N#Cc1cc(-c2ccnc(Nc3ccc(N4CCN(CCO)CC4)cc3)n2)ccc1OC1CCOCC1 [compound 512, 5-[2-({4-[4-(2-hydroxyethyl)piperazin-1-yl]phenyl}amino)pyrimidin-4-yl]-2-(tetrahydro-2H-pyran-4-yloxy)benzonitrile]
11 | 250 to 500 | < 5 | – | – | – | CCc1cccc(Nc2nccc(-c3ccc(O[C@@H]4CCN(C(=O)CO)C4)c(C#N)c3)n2)c1 [compound 544, 5-{2-[(3-Ethylphenyl)amino]pyrimidin-4-yl}-2-{[(3R)-1-(hydroxyacetyl)pyrrolidin-3-yl]oxy}benzonitrile]
12 | – | < 5 | – | < 10 | – | CNS(=O)(=O)Cc1ccc(Nc2nccc(-c3ccc(OCC(C)C)c(C#N)c3)n2)cc1 [compound 606, 1-[4-({4-[3-Cyano-4-(2-methylpropoxy)phenyl]pyrimidin-2-yl}amino)phenyl]-N-methylmethane-sulfonamide]
13 | – | < 5 | – | < 10 | – | N#Cc1cc(-c2ccnc(Nc3ccc(F)c(OCC(O)CO)c3)n2)ccc1OC1CCOCC1 (centres unmarked) [compound 608, 5-(2-{[3-(2,3-Dihydroxypropoxy)-4-fluorophenyl]amino}pyrimidin-4-yl)-2-(tetrahydro-2H-pyran-4-yloxy)benzonitrile]
14 | – | < 5 | 0.6 | < 10 | 1.5 | N#Cc1cc(-c2ccnc(Nc3cccc(CS(=O)(=O)NCCO)c3)n2)ccc1OCC1CC1 [compound 611, 1-[3-({4-[3-Cyano-4-(cyclopropylmethoxy)phenyl]pyrimidin-2-yl}amino)phenyl]-N-(2-hydroxyethyl) methanesulfonamide]
15 | – | 5 to 50 | – | 10 to 100 | – | COC1CN(Cc2ccc(Nc3nccc(-c4ccc(NC(=O)C5CC5)c(C#N)c4)n3)cc2)C1 [compound 634, N-{2-Cyano-4-[2-({4-[(3-methoxyazetidin-1-yl)methyl]phenyl}amino)pyrimidin-4-yl]phenyl} cyclopropane-carboxamide]
16 | – | < 5 | – | < 10 | – | N#Cc1cc(-c2ccnc(Nc3ccc(CS(=O)(=O)NCCO)cc3)n2)ccc1OCC1CC1 [compound 637, 1-[4-({4-[3-Cyano-4-(cyclopropylmethoxy)phenyl]pyrimidin-2-yl}amino)phenyl]-N-(2-hydroxyethyl) methanesulfonamide]
17 | – | < 5 | – | < 10 | – | CNS(=O)(=O)Cc1ccc(Nc2nccc(-c3ccc(OCC4CC4)c(C#N)c3)n2)cc1 [compound 644, 1-[4-({4-[3-Cyano-4-(cyclopropylmethoxy)phenyl]pyrimidin-2-yl}amino)phenyl]-N-methylmethane-sulfonamide]
18 | – | < 5 | – | < 10 | – | CC(C)COc1ccc(-c2ccnc(Nc3ccc(CS(=O)(=O)NCCO)cc3)n2)cc1C#N [compound 645, 1-[4-({4-[3-Cyano-4-(2-methylpropoxy)phenyl]pyrimidin-2-yl}amino)phenyl]-N-(2-hydroxyethyl) methanesulfonamide]
19 | – | < 5 | – | < 10 | – | N#Cc1cc(-c2ccnc(Nc3ccc(F)c(OCCN4CCNCC4)c3)n2)ccc1OCC1CC1 [compound 654, 2-(Cyclopropylmethoxy)-5-[2-({4-fluoro-3-[2-(piperazin-1-yl)ethoxy]phenyl}amino)pyrimidin-4-yl]benzonitrile]
20 | – | < 5 | – | < 10 | – | COCCNC(=O)c1ccc(Nc2nccc(-c3ccc(OCC4CC4)c(C#N)c3)n2)cc1 [compound 666]
